Laboratory results as given in ChEMBL document CHEMBL4334471, “Discovery of 1,8-disubstituted-[1,2,3]triazolo[4,5-c]quinoline derivatives as a new class of Hippo signaling pathway inhibitors” (Bioorg Med Chem Lett, 2019).

Columns and labels:
[1] = tested on: Epidermal growth factor receptor (Homo sapiens), P00533 [L858R,T790M]; assay: Inhibition of recombinant human EGFR T790M/L858R mutant (696 to end residues) assessed as residual activity at 10 uM using poly(Glu, Tyr) 4:1 as substrate at 40 mins in presence of [gamma-33ATP] by scintillation counting based radiometry assay relative to control
[2] = target: Serine/threonine-protein kinase PRP4 homolog (Homo sapiens) (UniProt Q13523); assay: Inhibition of recombinant human PRP4 (663 to end residues) assessed as residual activity at 10 uM using casein as substrate incubated for 40 mins in presence of [gamma33P]ATP by scintillation counting based radiometry assay relative to control
[3] = target: NUAK family SNF1-like kinase 2 (Homo sapiens) (UniProt Q9H093); assay: Inhibition of recombinant human full length NUAK2 assessed as residual activity at 10 uM using KKKVSRSGLYRSPSMPENLNRPR as substrate measured after 40 mins in presence of [gamma33P]ATP by scintillation counting based radiometry assay relative to control
[4] = target: Serine/threonine-protein kinase PAK 6 (Homo sapiens) (UniProt Q9NQU5); assay: Inhibition of recombinant human PAK6 (382 to end residues) assessed as residual activity at 10 uM using RRRLSFAEPG as substrate measured after 40 mins in presence of [gamma33P]ATP by scintillation counting based radiometry assay relative to control
Sequence of Serine/threonine-protein kinase PAK 6 (Homo sapiens) (Q9NQU5 whole entry, looked up, the tested form may be a part): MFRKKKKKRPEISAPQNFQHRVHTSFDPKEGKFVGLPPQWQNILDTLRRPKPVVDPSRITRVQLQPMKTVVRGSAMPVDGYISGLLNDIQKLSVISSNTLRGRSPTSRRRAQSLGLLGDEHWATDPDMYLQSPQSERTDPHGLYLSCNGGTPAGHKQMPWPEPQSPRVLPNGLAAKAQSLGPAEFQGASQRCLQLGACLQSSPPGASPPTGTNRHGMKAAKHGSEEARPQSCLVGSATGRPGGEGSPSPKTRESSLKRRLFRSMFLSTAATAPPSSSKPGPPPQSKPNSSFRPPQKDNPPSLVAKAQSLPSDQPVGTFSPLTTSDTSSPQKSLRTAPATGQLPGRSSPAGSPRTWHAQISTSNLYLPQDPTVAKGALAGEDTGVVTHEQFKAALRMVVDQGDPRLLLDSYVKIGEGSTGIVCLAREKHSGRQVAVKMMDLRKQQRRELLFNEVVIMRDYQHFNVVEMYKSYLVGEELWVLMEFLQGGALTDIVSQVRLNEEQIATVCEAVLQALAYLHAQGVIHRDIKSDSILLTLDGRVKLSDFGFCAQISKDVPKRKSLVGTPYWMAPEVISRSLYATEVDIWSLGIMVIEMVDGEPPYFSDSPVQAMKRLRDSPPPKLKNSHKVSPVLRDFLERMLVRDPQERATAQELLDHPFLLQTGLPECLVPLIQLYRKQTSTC

[5] = target: CDK4/Cyclin D3 (Homo sapiens) (UniProt P11802+P30281); assay: Inhibition of recombinant full length human CDK4/CyclinD3 assessed as residual activity at 10 uM using Rb fragment as substrate incubated for 40 mins in presence of [gamma-33ATP] by scintillation counting based radiometry assay relative to control; assay type: protein-complex assay
[6] = target: cGMP-dependent protein kinase 2 (Homo sapiens) (UniProt Q13237); assay: Inhibition of recombinant full-length human PRKG2 assessed as residual activity at 10 uM using KKLRRTLSFAEPG as substrate incubated for 40 mins in presence of [gamma33P]ATP by scintillation counting based radiometry assay relative to control
[7] = target: Serine/threonine-protein kinase Nek2 (Homo sapiens) (UniProt P51955); assay: Inhibition of recombinant full-length human NEK2 assessed as residual activity at 10 uM using myelin basic protein as substrate measured after 40 mins in presence of [gamma33P]ATP by scintillation counting based radiometry assay relative to control
[8] = target: Cyclin-Y/Cyclin-dependent kinase 16 (Homo sapiens) (UniProt Q00536+Q8ND76); assay: Inhibition of recombinant full length human CDK16/cyclinY assessed as residual activity at 10 uM using PKSPKARKKL as substrate incubated for 120 mins in presence of [gamma-33ATP] by scintillation counting based radiometry assay relative to control; assay type: protein-complex assay
[9] = target: SRSF protein kinase 2 (Homo sapiens) (UniProt P78362); assay: Inhibition of recombinant human SRPK2 (46 to end residues) assessed as residual activity at 10 uM using RSRSRSRSRSRSRSR as substrate incubated for 40 mins in presence of [gamma33P]ATP by scintillation counting based radiometry assay relative to control
Sequence of SRSF protein kinase 2 (Homo sapiens) (P78362 whole entry, looked up): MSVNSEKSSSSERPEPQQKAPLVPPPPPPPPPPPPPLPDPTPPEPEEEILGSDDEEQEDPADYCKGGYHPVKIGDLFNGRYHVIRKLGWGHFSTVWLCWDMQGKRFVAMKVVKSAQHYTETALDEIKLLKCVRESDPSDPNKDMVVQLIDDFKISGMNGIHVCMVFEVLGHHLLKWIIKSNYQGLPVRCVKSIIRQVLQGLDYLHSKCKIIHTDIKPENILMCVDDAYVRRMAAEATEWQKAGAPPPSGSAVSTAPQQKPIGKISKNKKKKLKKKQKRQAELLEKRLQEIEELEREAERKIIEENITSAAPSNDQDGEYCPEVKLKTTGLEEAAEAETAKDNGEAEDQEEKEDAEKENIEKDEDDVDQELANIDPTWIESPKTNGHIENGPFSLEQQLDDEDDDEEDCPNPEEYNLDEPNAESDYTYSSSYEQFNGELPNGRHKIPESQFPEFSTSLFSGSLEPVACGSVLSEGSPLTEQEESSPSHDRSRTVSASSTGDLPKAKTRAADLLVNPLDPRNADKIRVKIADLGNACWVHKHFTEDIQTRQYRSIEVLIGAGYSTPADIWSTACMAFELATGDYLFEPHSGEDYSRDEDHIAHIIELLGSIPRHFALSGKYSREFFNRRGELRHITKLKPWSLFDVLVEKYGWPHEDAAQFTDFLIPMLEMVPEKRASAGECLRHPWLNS

[10] = target: Serine/threonine-protein kinase MRCK gamma (Homo sapiens) (UniProt Q6DT37); assay: Inhibition of recombinant human MRCKgamma assessed as residual activity at 10 uM using KKRNRTLTV as substrate incubated for 40 mins in presence of [gamma-33ATP by scintillation counting based radiometry assay relative to control
[11] = target: cAMP-dependent protein kinase catalytic subunit PRKX (Homo sapiens) (UniProt P51817); assay: Inhibition of recombinant human full length PrKX assessed as residual activity at 10 uM using RRRLSFAEPG as substrate incubated for 40 mins in presence of [gamma33P]ATP by scintillation counting based radiometry assay relative to control
Sequence of cAMP-dependent protein kinase catalytic subunit PRKX (Homo sapiens) (P51817 whole entry): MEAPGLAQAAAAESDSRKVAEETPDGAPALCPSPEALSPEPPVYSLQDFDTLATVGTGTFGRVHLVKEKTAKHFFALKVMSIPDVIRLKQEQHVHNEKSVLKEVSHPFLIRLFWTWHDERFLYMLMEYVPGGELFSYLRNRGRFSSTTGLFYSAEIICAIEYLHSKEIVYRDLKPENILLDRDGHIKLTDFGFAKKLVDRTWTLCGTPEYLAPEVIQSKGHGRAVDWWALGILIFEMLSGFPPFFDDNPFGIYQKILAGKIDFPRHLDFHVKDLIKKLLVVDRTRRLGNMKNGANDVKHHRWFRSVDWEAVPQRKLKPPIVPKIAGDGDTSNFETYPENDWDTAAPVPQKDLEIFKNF

[12] = target: Serine/threonine-protein kinase 16 (Homo sapiens) (UniProt O75716); assay: Inhibition of human STK16 assessed as residual activity at 10 uM in presence of [gamma33P]ATP by scintillation counting based radiometry assay relative to control
Sequence of Serine/threonine-protein kinase 16 (Homo sapiens) (O75716 whole entry): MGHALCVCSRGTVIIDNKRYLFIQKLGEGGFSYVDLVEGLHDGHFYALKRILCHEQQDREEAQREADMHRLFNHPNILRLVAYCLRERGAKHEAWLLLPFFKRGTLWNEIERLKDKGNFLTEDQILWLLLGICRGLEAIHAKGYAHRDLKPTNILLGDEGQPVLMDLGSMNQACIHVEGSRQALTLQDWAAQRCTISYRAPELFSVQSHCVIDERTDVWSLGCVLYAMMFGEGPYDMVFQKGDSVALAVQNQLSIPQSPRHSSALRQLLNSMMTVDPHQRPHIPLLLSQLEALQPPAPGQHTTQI

[13] = target: Leucine-rich repeat serine/threonine-protein kinase 2 (Homo sapiens) (UniProt Q5S007); assay: Inhibition of recombinant human LRRK2 (970 to end residues) assessed as residual activity at 10 uM using RLGRDKYKTLRQI as substrate after 40 mins in presence of [gamma-33ATP] by scintillation counting based radiometry assay relative to control
[14] = target: Casein kinase II subunit alpha' (Homo sapiens) (UniProt P19784); assay: Inhibition of recombinant full length human CK2alpha2 assessed as residual activity at 10 uM using RRRDDDSDDD as substrate incubated 40 mins in presence of [gamma-33ATP] by scintillation counting based radiometry assay relative to control
Sequence of Casein kinase II subunit alpha' (Homo sapiens) (P19784 whole entry, looked up): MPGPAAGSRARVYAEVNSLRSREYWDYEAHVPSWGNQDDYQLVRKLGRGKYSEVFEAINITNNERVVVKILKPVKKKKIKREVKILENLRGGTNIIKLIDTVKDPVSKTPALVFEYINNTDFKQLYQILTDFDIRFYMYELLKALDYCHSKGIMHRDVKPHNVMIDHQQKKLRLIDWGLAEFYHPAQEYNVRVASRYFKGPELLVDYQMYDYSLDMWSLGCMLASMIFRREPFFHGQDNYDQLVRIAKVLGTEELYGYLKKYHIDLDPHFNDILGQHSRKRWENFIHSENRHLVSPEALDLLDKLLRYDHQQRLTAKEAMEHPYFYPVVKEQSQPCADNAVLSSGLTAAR

[15] = target: Activin receptor type-1B (Homo sapiens) (UniProt P36896); assay: Inhibition of human ALK4 (150 to end residues) assessed as residual activity at 10 uM using casein as substrate incubated for 40 mins in presence of [gamma-33ATP] by scintillation counting based radiometry assay relative to control
Sequence of Activin receptor type-1B (Homo sapiens) (P36896 whole entry): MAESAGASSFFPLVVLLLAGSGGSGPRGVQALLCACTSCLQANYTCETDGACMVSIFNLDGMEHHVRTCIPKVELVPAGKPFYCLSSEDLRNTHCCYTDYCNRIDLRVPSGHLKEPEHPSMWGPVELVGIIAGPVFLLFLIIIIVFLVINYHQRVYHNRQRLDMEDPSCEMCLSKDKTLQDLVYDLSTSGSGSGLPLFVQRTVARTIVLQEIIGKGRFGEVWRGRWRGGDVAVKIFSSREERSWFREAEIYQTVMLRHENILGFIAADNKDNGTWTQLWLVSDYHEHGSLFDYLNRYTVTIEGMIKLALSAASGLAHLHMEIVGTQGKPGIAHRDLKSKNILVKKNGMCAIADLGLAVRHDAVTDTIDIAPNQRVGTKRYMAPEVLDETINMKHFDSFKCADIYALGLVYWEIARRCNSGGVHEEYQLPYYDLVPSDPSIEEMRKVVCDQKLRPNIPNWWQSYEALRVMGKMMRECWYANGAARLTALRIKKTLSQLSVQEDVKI

[16] = target: SRSF protein kinase 3 (Homo sapiens) (UniProt Q9UPE1); assay: Inhibition of recombinant full-length human MSSK1 assessed as residual activity at 10 uM using ERMRPRKRQGSVRRRV as substrate measured after 40 mins in presence of [gamma33P]ATP by scintillation counting based radiometry assay relative to control
[17] = target: CDK3/Cyclin E (Homo sapiens) (UniProt P24864+Q00526); assay: Inhibition of recombinant full length human CDK3/CyclinE assessed as residual activity at 10 uM using Histone H1 as substrate incubated for 40 mins in presence of [gamma-33ATP] by scintillation counting based radiometry assay relative to control; assay type: protein-complex assay
Sequence of CDK3/Cyclin E (Homo sapiens) (P24864 whole entry, looked up): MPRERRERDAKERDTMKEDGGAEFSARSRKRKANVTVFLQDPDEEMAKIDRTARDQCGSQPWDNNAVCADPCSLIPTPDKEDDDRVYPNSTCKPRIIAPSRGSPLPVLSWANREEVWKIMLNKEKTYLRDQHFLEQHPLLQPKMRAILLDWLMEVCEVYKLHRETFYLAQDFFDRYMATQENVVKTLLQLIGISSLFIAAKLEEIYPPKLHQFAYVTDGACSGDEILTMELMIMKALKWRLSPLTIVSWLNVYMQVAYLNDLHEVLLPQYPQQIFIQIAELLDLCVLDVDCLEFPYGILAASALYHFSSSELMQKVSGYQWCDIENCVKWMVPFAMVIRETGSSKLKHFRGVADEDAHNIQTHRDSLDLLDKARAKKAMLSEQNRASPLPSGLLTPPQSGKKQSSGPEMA
Sequence of CDK3/Cyclin E (Homo sapiens) (Q00526 whole entry, looked up): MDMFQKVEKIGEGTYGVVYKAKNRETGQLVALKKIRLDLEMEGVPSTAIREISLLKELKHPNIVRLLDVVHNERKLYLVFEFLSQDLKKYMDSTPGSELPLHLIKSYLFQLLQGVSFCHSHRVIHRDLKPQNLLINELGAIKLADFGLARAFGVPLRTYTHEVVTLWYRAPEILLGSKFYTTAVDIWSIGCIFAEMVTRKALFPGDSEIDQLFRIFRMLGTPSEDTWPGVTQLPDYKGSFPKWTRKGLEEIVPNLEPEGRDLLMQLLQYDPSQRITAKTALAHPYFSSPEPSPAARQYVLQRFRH

[18] = target: Tyrosine-protein kinase JAK1 (Homo sapiens) (UniProt P23458); assay: Inhibition of human JAK1 (866 to end residues) assessed as residual activity at 10 uM using GEEPLYWSFPAKKK as substrate after 40 mins by [gamma-33ATP] radiometric assay relative to control
[19] = target: Ephrin type-A receptor 2 (Homo sapiens) (UniProt P29317); assay: Inhibition of recombinant human EphA2 (596 to 900 residues) assessed as residual activity at 10 uM using poly(Glu, Tyr) 4:1 as substrate at 40 mins in presence of [gamma-33ATP] by scintillation counting based radiometry assay relative to control
[20] = target: Protein kinase C zeta type (Homo sapiens) (UniProt Q05513); assay: Inhibition of recombinant human PKCzeta (2 to end residues) assessed as residual activity at 10 uM using ERMRPRKRQGSVRRRV as substrate incubated for 40 mins in presence of [gamma33P]ATP by scintillation counting based radiometry assay relative to control
Sequence of Protein kinase C zeta type (Homo sapiens) (Q05513 whole entry): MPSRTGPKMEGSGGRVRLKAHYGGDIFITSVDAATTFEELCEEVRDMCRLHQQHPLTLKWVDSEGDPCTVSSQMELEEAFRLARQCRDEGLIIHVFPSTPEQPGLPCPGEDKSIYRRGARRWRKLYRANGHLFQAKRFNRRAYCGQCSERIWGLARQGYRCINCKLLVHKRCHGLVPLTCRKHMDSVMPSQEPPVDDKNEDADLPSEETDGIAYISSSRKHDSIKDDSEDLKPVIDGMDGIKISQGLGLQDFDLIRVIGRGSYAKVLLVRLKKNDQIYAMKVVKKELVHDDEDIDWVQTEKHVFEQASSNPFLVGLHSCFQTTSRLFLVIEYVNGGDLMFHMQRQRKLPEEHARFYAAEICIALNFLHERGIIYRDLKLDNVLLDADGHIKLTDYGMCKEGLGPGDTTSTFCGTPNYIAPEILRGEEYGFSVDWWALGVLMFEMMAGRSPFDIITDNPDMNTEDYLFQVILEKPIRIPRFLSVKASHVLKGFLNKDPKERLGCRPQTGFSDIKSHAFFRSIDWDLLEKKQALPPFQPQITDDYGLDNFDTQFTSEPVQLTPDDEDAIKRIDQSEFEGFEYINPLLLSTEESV

[21] = target: Protein kinase C alpha type (Homo sapiens) (UniProt P17252); assay: Inhibition of recombinant human full length PKCalpha assessed as residual activity at 10 uM using histone H1 as substrate incubated for 40 mins in presence of [gamma33P]ATP by scintillation counting based radiometry assay relative to control

## C[C@@H](c1ccccc1)n1nnc2cnc3ccc(-c4cnc5[nH]ccc5c4)cc3c21
[1]
  Activity: 57%
[2]
  Activity: 86%
[3]
  Activity: 105%
[4]
  Activity: 74%
[5]
  Activity: 74%
[6]
  Activity: 52%
[7]
  Activity: 75%
[8]
  Activity: 106%
[9]
  Activity: 26%
[10]
  Activity: 67%
[11]
  Activity: 97%
[12]
  Activity: 59%
[13]
  Activity: 11%
[14]
  Activity: 83%
[15]
  Activity: 100%
[16]
  Activity: 69%
[17]
  Activity: 71%
[18]
  Activity: 47%
[19]
  Activity: 68%
[20]
  Activity: 84%
[21]
  Activity: 77%
